Measured values from patent US10858388B2, “Selective progesterone receptor modulator (SPRM) regimen” (BAYER PHARMA AKTIENGESELLSCHAFT, priority 2015, dated 2020).

Tested on: subjects with uterine fibroids
Test: Study 15788: endometrial thickness by transvaginal ultrasound, 3-month treatment (Example 3)
Format: in vivo, human
Conditions: 12 weeks
Protocol: A randomized, parallel-group, double-blind, placebo-controlled, multi-center study to assess efficacy of different doses of Compound 1 where primary efficacy variable is Endometrium thickness and secondary efficacy variable is PAEC in subjects with uterine fibroids over a 3-month treatment [1×12 weeks/84 days]
Doses: 0.5 mg, 1 mg, 2 mg, or 4 mg once daily
Route of administration: Oral
Duration of treatment: 1×12 weeks (84 days)
Women, 18 to 50 years old, with uterine fibroids documented by transvaginal or abdominal ultrasound at screening with at least 1 uterine fibroid with largest diameter 3 cm and heavy menstrual bleeding (HMB) 80 ml were eligible for enrolment in the study.
Eligible subjects were equally randomized to one of the treatment groups (Placebo, 0.5 mg, 1 mg, 2 mg, or 4 mg Compound 1). Treatment started during the first week of the menstrual cycle following randomization. The treatment period consisted of 12 weeks (84 days) of daily tablet intake.
Efficacy Measurement: • endometrial biopsies • cervical smear • transvaginal ultrasound TVU (endometrial thickness, ovaries)
Subjects that were detected with endometrial thickness (double layer)>18 mm (or suspicious bleeding pattern, e.g. continuous spotting, unusually heavy bleeding), were immediately evaluated by an additional endometrial biopsy.

Endometrial thickness at EoT, max (0.5 mg once daily oral): (27.0, 5.2) mm
Subjects with maximum endometrium thickness >18 mm, (%) (0.5 mg once daily oral): (3.4) %
Median endometrial thickness at EoT (0.5 mg once daily oral, n = 57): 9.0 mm
Endometrial thickness at EoT, max (1 mg once daily oral): (41.0, 7.0) mm
Subjects with maximum endometrium thickness >18 mm, (%) (1 mg once daily oral): (12.5) %
Median endometrial thickness at EoT (1 mg once daily oral, n = 56): 10.0 mm
Endometrial thickness at EoT, max (2 mg once daily oral): (27.0, 4.7) mm
Subjects with maximum endometrium thickness >18 mm, (%) (2 mg once daily oral): (3.5) %
Median endometrial thickness at EoT (2 mg once daily oral, n = 58): 7.5 mm
Endometrial thickness at EoT, max (4 mg once daily oral): (20.0, 4.9) mm
Median endometrial thickness at EoT (4 mg once daily oral, n = 56): 8.5 mm
Trend in endometrial thickness under treatment (0.5-4 mg once daily): no clear trend for an increase
Compound: C[C@]12C[C@H](c3ccc(S(C)(=O)=O)cc3)C3=C4CCC(=O)C=C4CC[C@H]3[C@@H]1CC[C@@]2(O)C(F)(F)C(F)(F)F [Compound 1, (11β,17β)-17-Hydroxy-11-[4-(methylsulphonyl)phenyl]-17-(pentafluoroethyl)estra-4,9-dien-3-one]
